Where two headings read alike, the source gives them in different places.
What was measured:
Assay in all cases: competition with […]benzylpenicillin for PBPs
Assay type in all cases: binding
[1] = biological target: T1, PBP3 of K. pneumoniae SR22291 (Klebsiella pneumoniae, UniProt A0A0H3GN85); settings: covalent
T1 construct: gene ftsI
T1 sequence (A0A0H3GN85 1-588): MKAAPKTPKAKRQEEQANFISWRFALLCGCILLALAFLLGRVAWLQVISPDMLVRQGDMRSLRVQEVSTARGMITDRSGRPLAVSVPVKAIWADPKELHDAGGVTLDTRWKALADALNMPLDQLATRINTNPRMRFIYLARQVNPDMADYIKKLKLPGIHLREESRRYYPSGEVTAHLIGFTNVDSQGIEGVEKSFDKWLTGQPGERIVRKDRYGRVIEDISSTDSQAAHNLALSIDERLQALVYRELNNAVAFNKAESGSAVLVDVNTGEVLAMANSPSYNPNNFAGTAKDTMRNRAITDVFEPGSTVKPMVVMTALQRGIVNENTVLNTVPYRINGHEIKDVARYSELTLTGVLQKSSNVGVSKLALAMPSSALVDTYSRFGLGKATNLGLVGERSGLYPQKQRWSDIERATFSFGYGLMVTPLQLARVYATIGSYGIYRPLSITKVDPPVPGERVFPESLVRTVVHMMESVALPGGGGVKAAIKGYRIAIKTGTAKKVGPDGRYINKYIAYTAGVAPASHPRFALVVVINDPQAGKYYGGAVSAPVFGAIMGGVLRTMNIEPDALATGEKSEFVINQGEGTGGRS

[2] = biological target: T2, PBP3 of P. aeruginosa ATCC 27853 (Pseudomonas aeruginosa, UniProt G3XD46); settings: covalent
T2 construct: gene ftsI

[3] = biological target: T3, PBP2 of P. aeruginosa ATCC 27853 (Pseudomonas aeruginosa, UniProt Q9X6V3); settings: covalent; read-out: IC50 (μg/ml) / E. coli NIHJ JC-2 / Ceftazidime
T3 construct: gene pbpA
T3 sequence (Q9X6V3 1-646): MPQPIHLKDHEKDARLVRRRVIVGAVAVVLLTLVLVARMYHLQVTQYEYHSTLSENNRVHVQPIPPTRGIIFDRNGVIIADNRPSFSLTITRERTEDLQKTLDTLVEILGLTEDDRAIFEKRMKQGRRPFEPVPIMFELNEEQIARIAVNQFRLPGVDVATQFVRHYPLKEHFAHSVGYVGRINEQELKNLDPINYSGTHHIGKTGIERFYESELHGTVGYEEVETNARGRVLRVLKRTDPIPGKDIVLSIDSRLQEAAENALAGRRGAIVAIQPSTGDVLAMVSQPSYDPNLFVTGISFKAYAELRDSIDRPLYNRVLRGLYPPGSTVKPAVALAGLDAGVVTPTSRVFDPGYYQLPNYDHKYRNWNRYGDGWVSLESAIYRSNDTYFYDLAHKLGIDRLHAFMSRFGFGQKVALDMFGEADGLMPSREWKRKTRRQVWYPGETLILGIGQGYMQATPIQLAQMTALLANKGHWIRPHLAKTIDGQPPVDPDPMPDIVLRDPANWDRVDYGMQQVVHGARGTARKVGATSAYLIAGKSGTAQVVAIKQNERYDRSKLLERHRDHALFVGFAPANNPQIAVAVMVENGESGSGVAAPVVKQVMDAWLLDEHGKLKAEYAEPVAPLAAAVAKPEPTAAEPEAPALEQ

[4] = biological target: T4, PBP4 of K. pneumoniae SR22291 (Klebsiella pneumoniae, UniProt A6TEK1); settings: covalent
T4 construct: gene dacB
T4 sequence (A6TEK1 21-477): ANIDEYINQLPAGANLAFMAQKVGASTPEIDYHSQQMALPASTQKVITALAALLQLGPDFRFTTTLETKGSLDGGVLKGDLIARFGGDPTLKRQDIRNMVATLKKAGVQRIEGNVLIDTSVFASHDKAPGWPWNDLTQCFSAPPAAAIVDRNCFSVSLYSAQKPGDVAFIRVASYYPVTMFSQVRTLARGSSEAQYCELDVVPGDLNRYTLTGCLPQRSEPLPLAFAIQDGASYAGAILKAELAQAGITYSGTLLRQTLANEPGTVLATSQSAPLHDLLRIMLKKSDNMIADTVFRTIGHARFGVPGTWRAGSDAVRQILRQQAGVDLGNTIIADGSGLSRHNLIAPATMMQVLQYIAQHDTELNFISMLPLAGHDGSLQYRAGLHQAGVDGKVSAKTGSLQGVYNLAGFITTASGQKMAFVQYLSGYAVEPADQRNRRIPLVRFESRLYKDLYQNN

[5] = biological target: T5, PBP1b of P. aeruginosa ATCC 27853 (Pseudomonas aeruginosa, UniProt G3XD31); settings: covalent; read-out: IC50 (μg/ml) / Ceftazidime
T5 construct: gene mrcB
T5 sequence (G3XD31 1-774): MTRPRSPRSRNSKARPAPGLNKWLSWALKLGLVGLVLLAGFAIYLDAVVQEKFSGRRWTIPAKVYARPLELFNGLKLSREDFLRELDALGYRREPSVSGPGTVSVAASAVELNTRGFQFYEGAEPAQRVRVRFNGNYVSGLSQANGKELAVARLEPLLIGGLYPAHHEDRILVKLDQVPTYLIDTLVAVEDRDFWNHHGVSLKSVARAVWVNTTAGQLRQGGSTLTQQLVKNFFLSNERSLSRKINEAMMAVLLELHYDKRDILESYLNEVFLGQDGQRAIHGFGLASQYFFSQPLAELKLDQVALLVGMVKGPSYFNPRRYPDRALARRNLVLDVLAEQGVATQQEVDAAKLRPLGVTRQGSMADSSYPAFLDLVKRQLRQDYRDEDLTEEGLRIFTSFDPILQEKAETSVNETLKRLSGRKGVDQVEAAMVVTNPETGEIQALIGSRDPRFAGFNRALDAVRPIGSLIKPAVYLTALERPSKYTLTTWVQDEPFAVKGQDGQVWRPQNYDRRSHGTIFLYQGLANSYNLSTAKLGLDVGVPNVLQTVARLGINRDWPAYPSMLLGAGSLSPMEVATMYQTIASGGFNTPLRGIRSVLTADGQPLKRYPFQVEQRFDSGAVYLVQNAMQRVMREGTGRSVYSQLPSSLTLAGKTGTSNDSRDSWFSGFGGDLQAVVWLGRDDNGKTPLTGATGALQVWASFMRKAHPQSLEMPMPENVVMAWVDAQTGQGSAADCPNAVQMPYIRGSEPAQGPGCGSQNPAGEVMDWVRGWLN

[6] = read-out: IC50 (μg/ml) / K. pneumoniae SR22291 / Cefiderocol (converted)
[7] = read-out: IC50 (μg/ml) / K. pneumoniae SR22291 / Ceftazidime (converted)

T2 sequence (G3XD46 whole entry): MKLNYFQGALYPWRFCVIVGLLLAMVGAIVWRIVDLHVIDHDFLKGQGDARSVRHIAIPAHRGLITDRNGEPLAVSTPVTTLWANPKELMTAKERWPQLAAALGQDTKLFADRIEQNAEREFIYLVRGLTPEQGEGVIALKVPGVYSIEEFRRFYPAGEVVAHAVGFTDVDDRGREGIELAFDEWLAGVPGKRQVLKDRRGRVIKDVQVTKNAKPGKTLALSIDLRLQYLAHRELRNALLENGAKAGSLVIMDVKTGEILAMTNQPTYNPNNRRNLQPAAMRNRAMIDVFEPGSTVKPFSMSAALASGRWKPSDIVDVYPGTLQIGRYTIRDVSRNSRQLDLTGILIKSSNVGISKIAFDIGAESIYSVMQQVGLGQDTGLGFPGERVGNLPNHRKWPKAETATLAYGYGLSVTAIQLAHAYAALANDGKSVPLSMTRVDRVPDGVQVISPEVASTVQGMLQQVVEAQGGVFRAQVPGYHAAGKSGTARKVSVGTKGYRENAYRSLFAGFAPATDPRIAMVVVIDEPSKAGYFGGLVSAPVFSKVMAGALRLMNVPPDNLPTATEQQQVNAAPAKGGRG

Row | SMILES | IC50 [1, 6] [nM] | IC50 ([2]; read-out: IC50 (μg/ml) / / Cefiderocol (converted)) [nM] | IC50 [3] [nM] | IC50 [4, 6] [nM] | IC50 [5] [nM] | IC50 [1, 7] [nM] | IC50 ([2]; read-out: IC50 (μg/ml) / P. aeruginosa ATCC 27853 / Ceftazidime (converted)) [nM] | IC50 [4, 7] [nM]
1 | CC(C)(O/N=C(\C(=O)N[C@@H]1C(=O)N2C(C(=O)[O-])=C(C[N+]3(CCNC(=O)c4ccc(O)c(O)c4Cl)CCCC3)CS[C@H]12)c1csc(N)n1)C(=O)O [cefiderocol] | 82.4 | 79.8 | > 5320 | 372 | > 5320 |  |  | 
2 | CC(C)(O/N=C(\C(=O)N[C@@H]1C(=O)N2C(C(=O)[O-])=C(C[n+]3ccccc3)CS[C@H]12)c1csc(N)n1)C(=O)O [ceftazidime] |  |  | > 7320 |  | > 7320 | 402 | 165 | 6590
